Literature values in EP2527351B1, “Lipophosphonoxins, method of their preparation and use” (priority 2011, dated 2012).

Test system: Mycobacterium tuberculosis strains
Details: multidrug-resistant strains, in vitro; cited from earlier work

Substance: caprazamycins [CPZs]
- MIC: 3.13 µg/mL
